Assay results reported in patent US5843959A, “Methods and bicyclic polyamine compositions for the treatment of inflammation” (University of Florida Research Foundation, Inc., priority 1997, dated 1998).
Entries after “also recorded” stand apart in the source; their conditions may differ.

Tested on: type II collagen-induced arthritis
Experiment: Prevention of type II collagen-induced arthritis in mice
Type: in vivo, mouse (DBA/1J)
Method: The purpose of this study was to test PIP[4,4,4] in an experimental model of arthritis in DBA/1J mice by observing the onset, duration and remission of inflammation utilizing type II collagen. Twenty male DBA/1J mice, equally divided into two groups of ten animals, were immunized with a single intradermal injection of native type II chick collagen (100 μg/animal, intradermally) in Complete Freund's Adjuvant (CFA) on Day 0. […] On Day 21, both groups received a challenge dose of type II collagen (100 μg/animal, intradermally at the base of the tail, in 50 μl CFA). Daily joint measurements were recorded once per day on Days 20-40. Joints were measured using a constant tension caliper (Mitutoyo Digimatic Thickness Gauge). All mice were measured before the start of the study (Day -1) to obtain baseline readings at three joints on the right and left hindlimb (paw thickness, ankle width and knee width) and two joints of the right and left forelimb (paw thickness and elbow width). […] Four of ten mice treated with PIP[4,4,4] died or were sacrificed in extremis, during the treatment period.

`C(CCNCC1CCNCC1)CNCC1CCNCC1` [PIP[4,4,4], N,N'-Bis(4-piperidinylmethyl)-1,4-butanediamine] was tested, and the “Toxicity of compound administration (in words)” value (75 mg/kg i.p. daily, dosage decreased to 50 mg/kg on Day 26) was “overt toxicity”, the “Day on which decrease in joint measurements first evident” value (i.p. daily from Day 20, 75 mg/kg) was ≤ 25 days and the “Mice died or sacrificed in extremis” value (i.p. daily from Day 20, 75 then 50 mg/kg, during treatment period) was “Four of ten”. The “Joint measurements / degree of inflammation (in words)” value (i.p. daily from Day 20, 75 then 50 mg/kg, vs saline control) was “Joint measurements decreased; also recorded: significantly less than that in mice treated with equal volumes of saline (control)”.
